In patent US20230025377A1, “COMPOSITIONS AND METHODS FOR TREATING OR PREVENTING PRURITUS” (HLB THERAPEUTICS CO., LTD., priority 2020, published 2023):
Where “and” joins values, the source holds several entries; their conditions need not be identical. Identical values can stand only once. Entries after “also recorded” stand apart in the source; their conditions may differ.

Tests used:
Assay type in all cases: cell-based, human
HMC-1 cells [1] = test: Histamine release in PMACI-treated HMC-1 cells (ELISA); details: for Histamine release: mean ± S.E.
Description: (§1) Cell culture: Human Mast Cell Line (HMC-1) cells (ATCC, Manassas, Va., USA) were maintained in IMDM (Iscove's Modified Dulbecco's Media) medium (Thermo Fisher Scientific) containing 10% fetal bovine serum (FBS; Hyclone, GE Healthcare Life Sciences) and 1% penicillin-streptomycin (Sigma-Aldrich, St. Louis, Mo., USA) in a 37° C. humidified incubator with 5% CO2. The medium was changed every 2-3 days.
(§2) HMC-1 cell treatment: HMC-1 cells were seeded in 12-well plates at a density of 7×10^5 cells per well and exposed to Tβ4 (1, 1.5, 3, and 6 μg/mL) for 1 hour before treatment with phorbol 12-myristate 13-acetate plus A23187 (PMACI; 30 nM of PMA plus 1.5 μM of A23187) to induce degranulation (activation) of mast cells and incubated at 37° C. After 2.5 hours, the medium was centrifuged (Hanil, UNION 32R PLUS) for 20 minutes at 1000×g. The supernate was transferred to another tube.
Allergic reaction factors: Histamine (HIS), Leukotrien B4 (LTB4), and Prostaglandin E2 (PGE2) amounts were evaluated to determine the effects of the disclosed composition on the release of allergic reaction factors. Histamine levels were measured using the HIS (Histamine) ELISA kit (Elabscience, Huston, Tex., USA) on the supernate of the culture medium. 50 μL of the sample was added to 96-plate wells, then 50 μL of Biotinylated Detection Ab working solution was added and incubated at 37° C. for 45 minutes. 100 μL of HRP Conjugate working solution was added and incubated at 37° C. for 30 minutes. 90 μL of Substrate reagent was added and incubated at 37° C. for 15 minutes. Washing was performed between each step. 50 μL of stop solution was added without washing. Absorbance was measured at 450 nm with a spectrophotometer (Biotek, PowerWave XS2, Winooski, Vt., USA).

HMC-1 cells [2] = test: IL-4 release in PMACI-treated HMC-1 cells (ELISA); details: for IL-4 release: mean ± S.E.
Description: as §1, §2
(§3) Inflammatory cytokines: IL-4, IL-13, and TNF-α amounts were evaluated to determine the effects of the disclosed composition on the release of inflammatory cytokines. IL-4 and IL-13 amounts were measured using Human IL-4 (ab100570) and IL-13 (ab100553) ELISA kit (Abeam, Cambridge, Mass.) on the supernate of the culture medium. 100 μL of the sample was added to 96-plate wells, then 100 μL of Biotinylated IL-4 and IL-13 detection antibody were added and incubated at room temperature for 1 hour. 100 μL of HRP-streptavidin solution was added and incubated at room temperature for 45 minutes. 100 μL of TMB one step substrate reagent was added and incubated at room temperature for 30 minutes. Washing was performed between each step and incubated on a shaker. Finally, 50 μL of stop solution was added without washing. Absorbance was measured at 450 nm with a spectrophotometer (Biotek, PowerWave XS2, Winooski, Vt., USA).

HMC-1 cells [3] = test: Leukotrien B4 (LTB4) release in PMACI-treated HMC-1 cells (ELISA); details: for Leukotrien B4 release: mean ± S.E.
Description: as §1, §2
The leukotriene B4 amount was measured using the LTB4 (Leukotriene B4) ELISA kit (MybioSource, San Diego, Calif., USA) on the supernate of the culture medium. 50 μL of the sample was added to 96-plate wells, then 50 μL of Biotinylated Detection Ab working solution was added and incubated at 37° C. for 45 minutes. 100 μL of HRP Conjugate working solution was added and incubated at 37° C. for 30 minutes. 90 μL of Substrate reagent was added and incubated at 37° C. for 15 minutes. Washing was performed between each step. 50 μL of stop solution was added without washing. Absorbance was measured at 450 nm with a spectrophotometer (Biotek, PowerWave XS2, Winooski, Vt., USA).

HMC-1 cells [4] = test: TNF-α release in PMACI-treated HMC-1 cells (ELISA); details: for TNF-α release: PMACI-treated HMC-1 cells, mean ± S.E.
Description: as §1, §2
The TNF-α amount was measured using a human TNF-alpha ELISA kit (Abeam, Cambridge, Mass.) on the supernate of the culture medium. 100 μL of the sample was added to 96-plate wells, then 50 μL of Biotinylated TNF alpha detection antibody was added and incubated at room temperature for 3 hours. 100 μL of HRP-streptavidin solution was added and incubated at room temperature for 30 minutes. 100 μL of Chromogen TMB substrate solution was added and incubated at room temperature of the light-shielding state for 20 minutes. Washing was performed between each step and incubated on a shaker. 50 μL of stop solution was added without washing. Absorbance was measured at 450 nm with a spectrophotometer (Biotek, PowerWave XS2, Winooski, Vt., USA).

HMC-1 cells [5] = test: Prostaglandin E2 (PGE2) release in PMACI-treated HMC-1 cells (ELISA); details: for PGE2 release: mean ± S.E.
Description: as §1, §2
The prostaglandin E2 (PGE2) amount was measured using a human PGE2 ELISA kit (Abeam, Cambridge, Mass.) on the supernate of the culture medium. 100 μL of the sample was added to 96-plate wells, then 50 μL of PGE2 Alkaline Phosphatase Conjugate was added. 50 ul of PGE2 Antibody was added and incubated on a shaker at room temperature for 45 minutes. 200 μL of pNPP substrate solution was added and incubated at 37° C. for 30 minutes. 90 μL of Substrate reagent was added and incubated at room temperature for 45 minutes. Washing was performed between each step. 50 μL of stop solution was added without washing. Absorbance was measured at 405 nm with a spectrophotometer (Biotek, PowerWave XS2, Winooski, Vt., USA).

HMC-1 cells [6] = test: IL-13 release in PMACI-treated HMC-1 cells (ELISA); details: for IL-13 release: PMACI-treated HMC-1 cells, mean ± S.E.
Description: as §1, §2, §3

[7] = Tβ4 1 μg/ml, PMACI-treated HMC-1 cells
[8] = Tβ4 1.5 μg/ml, PMACI-treated HMC-1 cells
[9] = Tβ4 3 μg/ml, PMACI-treated HMC-1 cells
[10] = Tβ4 6 μg/ml, PMACI-treated HMC-1 cells

## thymosin beta 4 (SDKPDMAEIEKFDKSKLKKTETQEKNPLPSKETIEQEKQAGES; Thymosin beta-4; UniProt P62328 2-44, looked up) [Tβ4, human protein; polypeptide composed of 43 amino acids having 4.9 kDa]
HMC-1 cells [1]; PMACI-treated HMC-1 cells
  Tβ4 concentration with inhibitory effect on histamine release: above 1 μg/ml
  Tβ4 concentration with the best effect of suppressing the increase of HIS release: 3 µg/mL
HMC-1 cells [1]; [7]
  Histamine release: 25.96 ± 0.78 pg/mL
HMC-1 cells [1]; [8]
  Histamine release: 23.91 ± 0.36 pg/mL
HMC-1 cells [1]; [9]
  Histamine release: 22.00 ± 1.10 pg/mL
HMC-1 cells [1]; [10]
  Histamine release: 23.46 ± 0.55 pg/mL
HMC-1 cells [1]; Tβ4 1, 1.5, 3, 6 μg/ml (1-6 μg/ml), p<0.01
  Amount of HIS released compared to PMACI alone: significant inhibitory effect; also recorded: significantly decreased
HMC-1 cells [1]; Tβ4 less than 1 μg/ml
  Amount of HIS released compared to PMACI alone: no significant difference
HMC-1 cells [2]; PMACI-treated HMC-1 cells
  Tβ4 concentration with inhibitory effect on IL-4 release: above 1.5 μg/ml
HMC-1 cells [2]; [7]
  IL-4 release: 88.27 ± 10.18 pg/mL
HMC-1 cells [2]; [8]
  IL-4 release: 79.77 ± 4.27 pg/mL
HMC-1 cells [2]; [9]
  IL-4 release: 65.43 ± 7.20 pg/mL
HMC-1 cells [2]; [10]
  IL-4 release: 64.01 ± 3.02 pg/mL
HMC-1 cells [2]; Tβ4 1-6 μg/ml
  Release level of IL-4 compared with PMACI treatment alone: significantly decreased
HMC-1 cells [2]; Tβ4 1.5, 3, and 6 μg/ml, p<0.05
  Amount of IL-4 released compared to PMACI alone: significant inhibitory effect
HMC-1 cells [3]; PMACI-treated HMC-1 cells
  Tβ4 concentration most effective in inhibiting the increase of LTB4 release: 1.5 µg/mL and 3 µg/mL
  Tβ4 concentration with inhibitory effect on LTB4 release: above 1.5 μg/ml
HMC-1 cells [3]; [8]
  Leukotrien B4 release: 29.94 ± 1.97 pg/mL
HMC-1 cells [3]; [9]
  Leukotrien B4 release: 28.91 ± 2.10 pg/mL
HMC-1 cells [3]; [10]
  Leukotrien B4 release: 32.06 ± 2.44 pg/mL
HMC-1 cells [3]; Tβ4 1-6 μg/ml
  Release level of LTB4 compared with PMACI treatment alone: significantly decreased
HMC-1 cells [3]; Tβ4 1.5 and 3 μg/ml, p<0.05
  Amount of LTB4 released compared to PMACI alone: significant inhibitory effect
HMC-1 cells [4]; Tβ4 1 μg/ml
  TNF-α release: 513.77 ± 17.85 pg/mL
HMC-1 cells [4]; Tβ4 1.5 μg/ml
  TNF-α release: 380.23 ± 7.97 pg/mL
HMC-1 cells [4]; Tβ4 3 μg/ml
  Reduction of TNF-α release compared to PMACI alone: reduced 37.4%
  TNF-α release: 379.42 ± 8.03 pg/mL
HMC-1 cells [4]; Tβ4 6 μg/ml
  Reduction of TNF-α release compared to PMACI alone: 37.1%
  TNF-α release: 381.46 ± 12.75 pg/mL
HMC-1 cells [4]; Tβ4 1, 1.5, 3, and 6 μg/ml (1-6 μg/ml), p<0.01
  Amount of TNF-α released compared to PMACI alone: significant inhibitory effect; also recorded: significantly decreased
HMC-1 cells [5]; PMACI-treated HMC-1 cells
  Tβ4 concentration most effective in inhibiting the increase of PGE2 release: 3 µg/mL
  Tβ4 concentration with inhibitory effect on PGE2 release: above 3 μg/ml
HMC-1 cells [5]; [8]
  PGE2 release: 97.43 ± 2.56 pg/mL
HMC-1 cells [5]; [9]
  PGE2 release: 94.96 ± 0.87 pg/mL
HMC-1 cells [5]; Tβ4 3 μg/ml, p<0.05
  Amount of PGE2 released compared to PMACI alone: significant inhibitory effect
HMC-1 cells [5]; [10]
  PGE2 release: 106.00 ± 3.13 pg/mL
HMC-1 cells [5]; Tβ4 1-6 μg/ml
  Release level of PGE2 compared with PMACI treatment alone: significantly decreased
HMC-1 cells [6]; Tβ4 1 μg/ml
  IL-13 release: 30.07 ± 2.33 pg/mL
HMC-1 cells [6]; Tβ4 1.5 μg/ml
  IL-13 release: 28.52 ± 2.83 pg/mL
HMC-1 cells [6]; Tβ4 3 μg/ml
  IL-13 release: 28.22 ± 2.33 pg/mL
HMC-1 cells [6]; Tβ4 6 μg/ml
  IL-13 release: 26.98 ± 2.45 pg/mL
HMC-1 cells [6]; Tβ4 1, 1.5, 3, and 6 μg/ml (1-6 μg/ml), p<0.05
  Amount of IL-13 released compared to PMACI alone: significant inhibitory effect; also recorded: significantly decreased
